Reference: article PMC9598561, “Antileishmanial Activity of 4,8-Dimethoxynaphthalenyl Chalcones on Leishmania amazonensis” (Antibiotics, 2022)

Legend:
[1] = system: L. amazonensis promastigotes; test: Antipromastigote activity, MTT assay; type: cell-based, Leishmania amazonensis; details: for SI = selectivity index (CC50/IC50): CC50 macrophages / IC50 promastigotes; for IC50: Leishmania amazonensis, L. amazonensis promastigotes, 24 h, MTT, IC50 ± SEM
Experimental: The promastigote forms of L. amazonensis (MHOM/BR/1989/166MJO) were maintained in culture medium 199 (GIBCO, Invitrogen, New York, NY, USA) pH 7.18–7.22 supplemented with 10% fetal bovine serum (FBS) (GIBCO, Invitrogen, New York, NY, USA), 1M HEPES buffer, 1% human urine, 1% L-glutamine, 10 µg/mL streptomycin and 10 U/mL penicillin (GIBCO, Invitrogen, NY, USA) and 10% sodium bicarbonate. The parasite culture was maintained in a B.O.D. incubator at 24 °C in 25 cm^2 culture flasks. In all experiments, promastigote forms in the stationary growth phase were used (5-day culture).
The activities were evaluated by the 3-(4,5-dimethylthiazol-2-yl)-2,5-diphenyltetrazolium bromide (MTT) assay. L. amazonensis promastigote forms (10^6 cells/mL) were placed in 96-well plates and treated with the chalcone derivatives (4a–i) at different concentrations (10, 25, 50, and 130 µM) and maintained in a B.O.D incubator for 24 h at 24 °C. A solution of MTT (10 μL of a 5 mg/mL stock) (Sigma-Aldrich, St. Louis, MO, USA) was added to each well, and after 4 h, the plates were evaluated at λ = 550 nm using a spectrophotometer (Thermo Fisher Scientific, Multiskan GO, Waltham, MA, USA). L. amazonensis promastigotes maintained in culture M199 medium without treatment or with 0.01% DMSO (Sigma-Aldrich, St. Louis, MO, USA) served as negative and vehicle controls. 1 μM amphotericin B (AmB) (Sigma-Aldrich, St. Louis, MO, USA) was used as a positive control. The results of antipromastigote activities were expressed as half-maximal inhibitory concentrations for 50% of parasites (IC50) in μM. The IC50 values were calculated as the average of three independent experiments performed in duplicates.
(§1) The half-maximal inhibitory concentration for 50% of parasites (IC50) was determined on L. amazonensis promastigotes treated with the nine compounds, and the cytotoxic concentration that causes the death of 50% of cells (CC50) on murine macrophages (J774A.1). IC50 and CC50 were calculated by nonlinear regression using GraphPad Prism statistical software (GraphPad Software, Inc., USA, 500.288). The tested compounds’ selectivity index was expressed as SI = CC50 on […] macrophages/IC50 on promastigotes forms.

[2] = Cytotoxicity on murine macrophages, MTT assay; type: cell-based; details: mouse, J774A.1 macrophage cell line, J774A.1 macrophages, CC50 ± SEM
Experimental: The cytotoxic effect of compounds 4a–i on murine macrophage cell lines J774A.1 (TIB-67, ATCC, Manassas, VA, USA) was assessed using the MTT assay (3-(4,5-dimethylthiazol-2-yl)-2,5-diphenyltetrazolium bromide) (Sigma-Aldrich, St. Louis, MO, USA), [14]. Macrophages were seeded in 96-well plates at a density of 10^4 cells/well and were cultured with 4a–i at different concentrations (10, 25, 50, and 130 µM) for 24 h (37 °C, 5% CO2). The cells were washed, MTT (5 mg/mL) added, and the cells were incubated for 4 h. The MTT product was diluted with 100 μL of DMSO (Sigma-Aldrich, St. Louis, MO, USA) and analyzed at 550 nm in a spectrophotometer (Thermo Fisher Scientific, Multiskan GO, Waltham, MA, USA) at 550 nm. 0.5% H2O2 (Merck, Darmstadt, Germany) was used as a positive control. The results were expressed as the percentage of viable cells compared to the control group. The cytotoxic concentration for 50% of the cells (CC50) was calculated by nonlinear regression to the dose-response curve using GraphPad Prism statistical software (GraphPad Software, Inc., San Diego, CA, USA, 500.288).
as §1

[3] = system: L. amazonensis intracellular amastigotes; test: Antiamastigote assay in infected J774A.1 macrophages; type: cell-based, Leishmania amazonensis; details: 24 h; for reduction of infected macrophages: mean ± SEM
Experimental: Murine macrophages J774A.1 (5 × 10^5 cell/mL) were cultivated in 24-well plates. After infection, the non-internalized promastigotes were removed by washing with PBS, and the adherent macrophages infected were treated with the most promising chalcone (4f) in non-cytotoxic concentrations (10, 25, 50, and 130 μM) for 24 h (37 °C, 5% CO2). RPMI 1640 medium, DMSO (0.01%), and AmB (1 μM) were used as a negative control, vehicle, and positive control, respectively. Then, cells were stained with Leishman (Laborclin, Pinhais, Brazil), and 20 fields were analyzed by increased immersion (1000× magnification) using an optical microscope (Olympus BX41, Olympus Optical Co., Ltd., Tokyo, Japan) to determine the % of infected macrophages and the number of amastigotes/cells.

[4] = system: L. amazonensis promastigotes; test: ROS generation in promastigotes (H2DCFDA probe); type: cell-based, Leishmania amazonensis; details: 3.3 μM and 6.6 μM, 24 h
Experimental: As a positive control, hydrogen peroxide (0.4% H2O2) was used, and the vehicle (DMSO 0.01%) was used for a negative control. ROS was measured as an increase in fluorescence caused by converting the non-fluorescent dye to the fluorescent 2.7-dichlorofluorescein, with an excitation wavelength of 488 nm and emission of 530 nm in a fluorescence microplate reader (Victor X3, PerkinElmer, Turku, Finland).

[5] = system: L. amazonensis promastigotes; test: Mitochondrial membrane potential (TMRE); type: cell-based, Leishmania amazonensis; details: 3.3 μM and 6.6 μM, 24 h
Experimental: To evaluate if the most promising chalcone (4f) alters the mitochondrial membrane potential, we conducted an assay using a tetramethylrhodamine ethyl ester (TMRE) staining (Sigma-Aldrich, St. Louis, MO, USA). […] Carbonyl cyanide m-chlorophenylhydrazone (100 μM) (CCCP) (Sigma-Aldrich, St. Louis, MO, USA) was used as a positive control, and the vehicle (DMSO 0.01%) was used as a negative control.

[6] = system: L. amazonensis promastigotes; test: SEM and TEM morphological and ultrastructural analysis; type: cell-based, Leishmania amazonensis; details: 3.3 μM and 6.6 μM, 24 h
Experimental: SEM was performed to analyze morphological changes in the cell surface topography. […] After the treatment, the parasites were fixed in 2.5% glutaraldehyde (Merck, Darmstadt, Germany) in 0.1 M sodium cacodylate buffer (Sigma-Aldrich, St. Louis, MO, USA) and adhered to coverslips covered with poly-L-lysine (Sigma-Aldrich, St. Louis, MO, USA) for 60 min. Parasites were dehydrated with increasing ethanol (Synth, Diadema, Brazil) concentrations (30–100%), submitted to critical point drying (Baltec SCD-030), metalized with gold, and visualized on a high-resolution double beam electron microscope FEI SCIOS.
To evaluate the ultrastructural changes by TEM, promastigotes were treated and fixed as described above. After the samples were post-fixed with 1% OsO4 (Sigma-Aldrich, St. Louis, MO, USA), 0.8% potassium ferrocyanide (Sigma-Aldrich, St. Louis, MO, USA), and 10.0 mM CaCl2 (Synth, Diadema, Brazil) in 0.1 M sodium cacodylate buffer for 1 h at room temperature and protected from light. Samples were washed in 0.1 M sodium cacodylate buffer, dehydrated in increased concentration of acetone (Synth, Diadema, Brazil) (50–100%), including in EPON resin, and polymerized at 60 °C for 72 h. […]

SMILES	SI = selectivity index (CC50/IC50) [1]	IC50 [1] [µM]	CC50 at 24 h [2] [µM]	further results
C[C@@H]1[C@H](O)[C@@H](C)/C=C/C=C/C=C/C=C/C=C/C=C/C=C/[C@H](O[C@@H]2O[C@H](C)[C@@H](O)[C@H](N)[C@@H]2O)C[C@@H]2O[C@](O)(C[C@@H](O)C[C@@H](O)[C@H](O)CC[C@@H](O)C[C@@H](O)CC(=O)O[C@H]1C)C[C@H](O)[C@H]2C(=O)O [AmB, Amphotericin B, reference compound]	73.17	0.68 ± 0.21	49.7	reduction in the percentage of infected macrophages ([3]; 1 μM, positive control): 95.25 ± 0.65%; reduction of number of amastigotes per macrophage ([3]; 1 μM, positive control): 89.55 ± 0.05%
COc1ccc(/C=C/C(=O)c2ccc(OC)c3cccc(OC)c23)cc1 [Compound 4a, (E)-1-(4,8-dimethoxynaphthalen-1-yl)-3-(4-methoxyphenyl)prop-2-en-1-one]	1.7	264.1 ± 0.12	414.8 ± 0.04	
COc1cccc(/C=C/C(=O)c2ccc(OC)c3cccc(OC)c23)c1 [Compound 4b, (E)-1-(4,8-dimethoxynaphthalen-1-yl)-3-(3-methoxyphenyl)prop-2-en-1-one]	3.7	67.1 ± 0.16	246.7 ± 0.03	
COc1ccc(C(=O)/C=C/c2ccc(Cl)c(Cl)c2)c2c(OC)cccc12 [Compound 4c, (E)-3-(3,4-dichlorophenyl)-1-(4,8-dimethoxynaphthalen-1-yl)prop-2-en-1-one]	14.5	13.4 ± 0.08	194.3 ± 0.06	
COc1ccc(C(=O)/C=C/c2c(Cl)cccc2Cl)c2c(OC)cccc12 [Compound 4d, (E)-3-(2,6-dichlorophenyl)-1-(4,8-dimethoxynaphthalen-1-yl)prop-2-en-1-one]		94.1 ± 0.06	126.8 ± 0.09	
COc1ccc(C(=O)/C=C/c2ccc(Cl)cc2Cl)c2c(OC)cccc12 [Compound 4e, (E)-3-(2,4-dichlorophenyl)-1-(4,8-dimethoxynaphthalen-1-yl)prop-2-en-1-one]		37.7 ± 0.06	561.1 ± 0.03	
COc1ccc(C(=O)/C=C/c2ccc([N+](=O)[O-])cc2)c2c(OC)cccc12 [Compound 4f, (E)-1-(4,8-dimethoxynaphthalen-1-yl)-3-(4-nitrophenyl)prop-2-en-1-one]	112.6	3.3 ± 0.34	372.9 ± 0.04	reduction of number of amastigotes per macrophage ([3]; 10 μM, compared to controls): 14.14 ± 0.04%; reduction of infected macrophages ([3]; 10 μM): 23.81 ± 1.07%; reduction of number of amastigotes per macrophage ([3]; 25 μM, compared to controls): 36.20 ± 0.02%; reduction of infected macrophages ([3]; 25 μM): 35.78 ± 1.59%; reduction of number of amastigotes per macrophage ([3]; 50 μM, compared to controls): 39.33 ± 0.03%; reduction of infected macrophages ([3]; 50 μM): 42.15 ± 0.49%; reduction of infected macrophages ([3]; 130 μM): 63.04 ± 0.35%; IC50 ([3]; Leishmania amazonensis, J774.A1, L. amazonensis-infected J774A.1 macrophages): 18.5 ± 1.19 µM; intracellular ROS levels (DCF fluorescence) [4]: substantial rise in the intracellular ROS levels; mitochondrial membrane potential (ΔΨm), TMRE [5]: reduces the potential of the mitochondrial membrane (ΔΨm); ultrastructural changes (TEM) [6]: an increase in autophagic vacuoles, lipid-storage bodies accumulation, mitochondrial swelling, and nuclear alterations
COc1ccc(C(=O)/C=C/c2cccc([N+](=O)[O-])c2)c2c(OC)cccc12 [Compound 4g, (E)-1-(4,8-dimethoxynaphthalen-1-yl)-3-(3-nitrophenyl)prop-2-en-1-one]	23.2	14.5 ± 0.09	366 ± 0.13	
COc1ccc(C(=O)/C=C/c2ccccc2)c2c(OC)cccc12 [Compound 4h, (E)-1-(4,8-dimethoxynaphthalen-1-yl)-3-phenylprop-2-en-1-one]	33.44	26.1 ± 0.09	872.3 ± 0.134	
COc1ccc(C(=O)/C=C/c2ccc(Br)cc2)c2c(OC)cccc12 [Compound 4i, (E)-3-(4-bromophenyl)-1-(4,8-dimethoxynaphthalen-1-yl)prop-2-en-1-one]	17.8	24.3 ± 0.05	434 ± 0.05	
